Tests used:
[1] = test system: calf thymus DNA; assay: Covalent photobinding of tritiated isopsoralens (scintillation counting); assay type: binding; settings: for actual concentrations obtained empirically: nominal concentration of 100 µg/ml in calf thymus DNA / 1 x TE, counted after sitting overnight at room temperature
Protocol: Figure 17 can again be referred to as a flow chart schematically showing the manner in which covalent binding was measured for the compounds synthesized by the methods of the present invention. ^3H-AMIP (3.1 x 10^5 cpm/µg), ^3H-AMDMIP (2.2 x 10^5 cpm/µg), and ^3H-MIP (2.1 x 10^5 cpm/µg) were added to 300 µl of calf thymus DNA (Sigma) in 1 x TE buffer. All of the isopsoralen compounds were added at a nominal concentration of 100 µg/ml. However, actual concentrations obtained empirically (counted after sitting overnight at room temperature) were: ^3H-AMIP (105 µg/ml), ^3H-AMDMIP (115 µg/ml), and ^3H-MIP ([…]).
To assess binding, three samples were prepared for each compound; two were irradiated (15 minutes at 25°C with the CE-I device) while one was unirradiated as a control. Following irradiation, the samples were extracted four times with CHCl3 then precipitated twice. The final pellet was brought up in 1 ml of 1 x TE buffer and resuspended by shaking at 40°C overnight. 50 µl of each sample was then diluted to 0.5 mls with H20. The concentration of DNA was determined by UV absorption (A260) and the amount of covalently bound isopsoralen ("adduct") was determined by scintillation counting (3 x 100 µl aliquots). From these numbers, the following binding ratios (adducts: DNA base pair) were determined: […]

[2] = test system: Taq I DNA polymerase; assay: Primer extension on site-specific 71-mer monoadduct template; assay type: biochemical, Thermus aquaticus; settings: for Taq polymerase extension on 71-mer monoadduct template / position of the Taq polymerase stop within the 71-mer: 55°C, PAGE, autoradiography; for Taq polymerase extension on 71-mer monoadduct template: 0.5, 1.0, 5.0 mins
Protocol: In this experiment, monoadducted 71-mers (as well as unmodified 71-mers) were used in template-dependent enzymatic extension. AMIP, AMDMIP, and MIP 71-mer monoadducts were made as in Example 17. Extension was carried out as in Example 18 except that in this experiment, Taq I DNA polymerase, a thermostable DNA polymerase isolated from Thermus aquaticus (Stratagene, Inc., La Jolla, CA) was assessed for its ability to read past isopsoralens.
The reaction mixture was in 80 µl total volume and comprised 1 x Taq buffer, 200 µM each of dNTP's, 0.05 units of Taq per µl of reaction volume; 1 x 10^-9 M in 71-mer MA; 1 x 10^-8 M in ^32P-labelled SK-39. Each reaction was set up with everything except Taq polymerase. The samples were initially heated to 95°C for 5 mins, then incubated at 55°C for 3 mins. The extension reaction was initiated by addition of Taq polymerase. At the indicated time points (0.5, 1.0, 5.0 mins), 20 µl of the reaction mix was removed to a tube containing 1 µl of 0.5 M EDTA to stop the reaction. All products were analyzed on a 20% polyacrylamide, 7 M urea gel followed by autoradiography.
This experiment investigated whether blocking of Taq polymerase by monoadducts is complete or whether monoadducts can be bypassed by the enzyme. In order to view the process of bypass synthesis, it is necessary to cycle the extension reaction of the primer with the 71-mer templates. Cycling in this case consists of mixing the primer with the 71-mer template, adding Taq polymerase and appropriate reagents, extending, heating to induce strand separation, reannealing of the primer to the 71-mer template, extending again, and subsequent stand separation. This process can be repeated as necessary. During this process, only the complement of the 71-mer template is being synthesized. It is accumulating in a linear fashion with the number of thermal cycles (in contrast to PCR where both strands are being synthesized and accumulate geometrically).
The templates and reaction conditions were as in Example 19 above except that three samples were used for each monoadduct and each sample was tested under different conditions: • Samples (1): one sample for each monoadduct was used to carry out extension at 55°C as in Example 43; • Samples (2): one sample for each monoadduct was used to carry out extension by the following series of steps: denaturing at 95°C; incubating for 30 seconds at 55°C; adding Taq polymerase for 3 minutes at 550C; cooling the reaction for 1 minute at 7°C; stopping the reaction with EDTA for one minute at 95°C: • Samples (3): one sample for each monoadduct was used to carry out extension by repeating the following series of steps nine times: denaturing at 95°C; incubating for 30 seconds at 55°C; adding Taq polymerase for 3 minutes at 55°C; cooling the reaction for 1 minute at 7°C. At the end, the reaction is stopped with EDTA for one minute at 95°C.
To investigate this question further, a new 5-MIP monoadducted 71-mer was prepared by repurification of the HPLC purified 5-MIP monoadducted 15-mer by PAGE. In this way, more of the non-monoadducted 15-mer was removed prior to ligation. The purified 71-mer was then used as template in an extension experiment as described in Example 20. After 10 cycles, there was still evidence of extension product (Figure 34).
Monoadducted 71-mer was constructed as described, but for HMT. Extension was carried out and analyzed as before on PAGE. […] Full length 71-mer is not made and a shorter strand corresponding to the position of the HMT adduct was made.

5-Aminomethylisopsoralen [AMIP]
actual concentrations obtained empirically [1]: 105 µg/mL | modification density relative to that provided by AMDMIP ([1]; photobinding at the same concentration): 43% | Taq polymerase extension on 71-mer monoadduct template [2]: stops at positions that are shorter than the full length 71-mer product | position of the Taq polymerase stop within the 71-mer [2]: multiple stops

4'-Aminomethyl-4,5'-dimethylisopsoralen [AMDMIP]
actual concentrations obtained empirically [1]: 115 µg/mL | Taq polymerase extension on 71-mer monoadduct template [2]: stops at positions that are shorter than the full length 71-mer product | position of the Taq polymerase stop within the 71-mer [2]: a different stop altogether

Cc1cc2occc2c2oc(=O)ccc12 [MIP, 5-Methylisopsoralen]
actual concentrations obtained empirically [1]: < 10 µg/mL | Taq polymerase extension on 71-mer monoadduct template [2]: stops at positions that are shorter than the full length 71-mer product | position of the Taq polymerase stop within the 71-mer [2]: at about the position of the TpA sequence in the 10-mer | extension products truncated ([2]; monoadducted 15-mer repurified by PAGE before ligation, after 10 cycles): 97.7% | full length extension product as share of the total extension products ([2]; monoadducted 15-mer repurified by PAGE before ligation, after 10 cycles, band excised and counted): 2.3%

Source: patent publication EP0497921B1, “METHOD FOR INHIBITING ENZYMATIC SYNTHESIS OF NUCLEIC ACIDS USING ISOPSORALENS” (ISAACS, Stephen T., priority 1989, dated 1991)
